Test results: PubChem BioAssay AID1259407 (Chemical Carcinogenesis Research Information System (CCRIS), 2018)
The source made the active and inactive calls. The rule behind the calls is not given here.

Tested on: CCRIS mutagenicity, Ames/micronucleus/aberration tests
Assay: CCRIS mutagenicity studies
[1] = Test System: AMES SALMONELLA TYPHIMURIUM, Strain/Indicator: TA98, Metabolic Activation: NONE, Method: STANDARD PLATE
[2] = Test System: AMES SALMONELLA TYPHIMURIUM, Strain/Indicator: TA100, Metabolic Activation: NONE, Method: STANDARD PLATE
[3] = Test System: AMES SALMONELLA TYPHIMURIUM, Strain/Indicator: TA98, Metabolic Activation: RAT, LIVER, S-9, AROCLOR 1254, Method: STANDARD PLATE
[4] = Test System: AMES SALMONELLA TYPHIMURIUM, Strain/Indicator: TA100, Metabolic Activation: RAT, LIVER, S-9, AROCLOR 1254, Method: STANDARD PLATE
[5] = Test System: AMES SALMONELLA TYPHIMURIUM, Strain/Indicator: TA1535, Metabolic Activation: NONE, Method: STANDARD PLATE
[6] = Test System: AMES SALMONELLA TYPHIMURIUM, Strain/Indicator: TA1535, Metabolic Activation: RAT, LIVER, S-9, AROCLOR 1254, Method: STANDARD PLATE
[7] = Test System: AMES SALMONELLA TYPHIMURIUM, Strain/Indicator: TA1537, Metabolic Activation: NONE, Method: STANDARD PLATE
[8] = Test System: AMES SALMONELLA TYPHIMURIUM, Strain/Indicator: TA1537, Metabolic Activation: RAT, LIVER, S-9, AROCLOR 1254, Method: STANDARD PLATE
[9] = Test System: AMES SALMONELLA TYPHIMURIUM, Strain/Indicator: TA1538, Metabolic Activation: NONE, Method: STANDARD PLATE
[10] = Test System: AMES SALMONELLA TYPHIMURIUM, Strain/Indicator: TA1538, Metabolic Activation: RAT, LIVER, S-9, AROCLOR 1254, Method: STANDARD PLATE
[11] = Test System: AMES SALMONELLA TYPHIMURIUM, Strain/Indicator: TA98, Metabolic Activation: NONE, Method: PREINCUBATION
[12] = Test System: AMES SALMONELLA TYPHIMURIUM, Strain/Indicator: TA1535, Metabolic Activation: NONE, Method: PREINCUBATION
[13] = Test System: AMES SALMONELLA TYPHIMURIUM, Strain/Indicator: TA1537, Metabolic Activation: NONE, Method: PREINCUBATION

Q: Which mutagenic call [1] does the source give for `CCc1c(N)ccc2ccccc12` here?
A: Its mutagenic call is “inactive; negative”.

Q: And the mutagenic call (Test System: AMES SALMONELLA TYPHIMURIUM, Strain/Indicator: TA98, Metabolic Activation: RAT LIVER S-9, AROCLOR, Method: STANDARD PLATE)?
A: The mutagenic call was “active; positive”.

Q: What about the mutagenic call [2] of the same compound?
A: Its mutagenic call is “inactive; negative”.

Q: And the mutagenic call (Test System: AMES SALMONELLA TYPHIMURIUM, Strain/Indicator: TA100, Metabolic Activation: RAT LIVER S-9, AROCLOR, Method: STANDARD PLATE)?
A: The mutagenic call was “active; positive”.

Q: How did the mutagenic call [1] turn out when `CC(C)N(C(=O)SC/C(Cl)=C/Cl)C(C)C` was run?
A: Its mutagenic call is “inactive; negative”.

Q: And the mutagenic call [3]?
A: Its mutagenic call is “active; positive”.

Q: What about the mutagenic call [2] of the same compound?
A: The mutagenic call was “inactive; negative”.

Q: And the mutagenic call [4]?
A: Its mutagenic call is “active; positive”.

Q: What about the mutagenic call [5] of the same compound?
A: The mutagenic call was “inactive; negative”.

Q: What about the mutagenic call [6] of the same compound?
A: Its mutagenic call is “active; positive”.

Q: And the mutagenic call [7]?
A: Its mutagenic call is “inactive; negative”.

Q: And the mutagenic call [8]?
A: The mutagenic call was “inactive; negative”.

Q: And the mutagenic call [9]?
A: The mutagenic call was “inactive; negative”.

Q: What about the mutagenic call [10] of the same compound?
A: Its mutagenic call is “inactive; negative”.

Q: What does the source list for `O=[N+]([O-])c1ccccc1SS/C(Cl)=C(\Cl)C(Cl)=C(Cl)Cl`?
A: mutagenic call (Test System: AMES SALMONELLA TYPHIMURIUM, Strain/Indicator: TA100(DNP6), Metabolic Activation: NONE, Method: PREINCUBATION): active; positive; mutagenic call (Test System: AMES SALMONELLA TYPHIMURIUM, Strain/Indicator: TA100(NR), Metabolic Activation: NONE, Method: PREINCUBATION): active; positive

Q: Which results are given for `CC[C@H]1OC(=O)[C@H](C)[C@@H](O[C@H]2C[C@@](C)(OC)[C@@H](O)[C@H](C)O2)[C@H](C)[C@@H](O[C@@H]2O[C@H](C)C[C@H](N(C)C)[C@H]2O)[C@](C)(O)C[C@@H](C)C(=O)[C@H](C)[C@@H](O)[C@]1(C)O`?
A: mutagenic call (End Point: AMES SALMONELLA TYPHIMURIUM, Test System: TA98, Metabolic Activation: NONE, Method: STANDARD PLATE): inactive; negative; mutagenic call (End Point: AMES SALMONELLA TYPHIMURIUM, Test System: TA100, Metabolic Activation: NONE, Method: STANDARD PLATE): inactive; negative; mutagenic call (End Point: IN VITRO CHROMOSOMAL ABERRATIONS, Test System: CHO CELLS, Metabolic Activation: NONE): inactive; negative; testing limited by solubility of the chemical; mutagenic call (End Point: IN VITRO CHROMOSOMAL ABERRATIONS, Test System: CHO CELLS, Metabolic Activation: RAT, LIVER, S-9, AROCLOR 1254): inactive; negative; testing limited by solubility of the chemical; mutagenic call (Test System: AMES SALMONELLA TYPHIMURIUM, Strain/Indicator: TA98, Metabolic Activation: HAMSTER, LIVER, S-9, AROCLOR 1254, Method: PREINCUBATION): inactive; negative; mutagenic call [11]: inactive; negative; mutagenic call (Test System: AMES SALMONELLA TYPHIMURIUM, Strain/Indicator: TA98, Metabolic Activation: RAT, LIVER, S-9, AROCLOR 1254, Method: PREINCUBATION): inactive; negative; mutagenic call (Test System: AMES SALMONELLA TYPHIMURIUM, Strain/Indicator: TA100, Metabolic Activation: HAMSTER, LIVER, S-9, AROCLOR 1254, Method: PREINCUBATION): inactive; negative; mutagenic call (Test System: AMES SALMONELLA TYPHIMURIUM, Strain/Indicator: TA100, Metabolic Activation: NONE, Method: PREINCUBATION): inactive; negative; mutagenic call (Test System: AMES SALMONELLA TYPHIMURIUM, Strain/Indicator: TA100, Metabolic Activation: RAT, LIVER, S-9, AROCLOR 1254, Method: PREINCUBATION): inactive; negative; mutagenic call (Test System: AMES SALMONELLA TYPHIMURIUM, Strain/Indicator: TA1535, Metabolic Activation: HAMSTER, LIVER, S-9, AROCLOR 1254, Method: PREINCUBATION): inactive; negative; mutagenic call [12]: inactive; negative; mutagenic call (Test System: AMES SALMONELLA TYPHIMURIUM, Strain/Indicator: TA1535, Metabolic Activation: RAT, LIVER, S-9, AROCLOR 1254, Method: PREINCUBATION): inactive; negative; mutagenic call (Test System: AMES SALMONELLA TYPHIMURIUM, Strain/Indicator: TA1537, Metabolic Activation: HAMSTER, LIVER, S-9, AROCLOR 1254, Method: PREINCUBATION): inactive; negative; mutagenic call [13]: inactive; negative; mutagenic call (Test System: AMES SALMONELLA TYPHIMURIUM, Strain/Indicator: TA1537, Metabolic Activation: RAT, LIVER, S-9, AROCLOR 1254, Method: PREINCUBATION): inactive; negative; mutagenic call (Test System: MOUSE LYMPHOMA, Strain/Indicator: L5178Y (TK+/TK-), Metabolic Activation: RAT, LIVER, S-9, AROCLOR 1254, Method: SUSPENSION/PLATE): inactive; negative

Q: What does the source list for `OC(O)C(Cl)(Cl)Cl`?
A: mutagenic call (End Point: IN VITRO MICRONUCLEUS, Test System: HAMSTER V79 CELLS, Metabolic Activation: NONE): active; positive; mutagenic call (End Point: IN VIVO MICRONUCLEUS, Test System: BLOOD LYMPHOCYTES, Species: HUMAN, Strain/Sex: INFANTS/MALE, FEMALE, Route: ORAL): active; positive; mutagenic call (Test System: AMES SALMONELLA TYPHIMURIUM, Strain/Indicator: TA98, Metabolic Activation: HAMSTER LIVER S-9 (10%), AROCLOR 1254, Method: PREINCUBATION): inactive; negative; mutagenic call [11]: inactive; negative; mutagenic call [1]: inactive; negative; mutagenic call (Test System: AMES SALMONELLA TYPHIMURIUM, Strain/Indicator: TA98, Metabolic Activation: RAT LIVER S-9 (10%), AROCLOR 1254, Method: PREINCUBATION): inactive; negative; mutagenic call [3]: inactive; negative; mutagenic call (Test System: AMES SALMONELLA TYPHIMURIUM, Strain/Indicator: TA98, Metabolic Activation: RAT, LIVER, S-9, PHENOBARBITAL AND 5,6-BENZOFLAVONE, Method: PREINCUBATION): inactive; negative; mutagenic call (Test System: AMES SALMONELLA TYPHIMURIUM, Strain/Indicator: TA100, Metabolic Activation: HAMSTER LIVER S-9 (10%), AROCLOR 1254, Method: PREINCUBATION): active; positive; mutagenic call (Test System: AMES SALMONELLA TYPHIMURIUM, Strain/Indicator: TA100, Metabolic Activation: NONE, Method: FLUCTUATION TEST): inactive; negative; mutagenic call [2]: inactive; negative; mutagenic call (Test System: AMES SALMONELLA TYPHIMURIUM, Strain/Indicator: TA100, Metabolic Activation: RAT LIVER S-9 (10%), AROCLOR 1254, Method: PREINCUBATION): active; positive; mutagenic call (Test System: AMES SALMONELLA TYPHIMURIUM, Strain/Indicator: TA100, Metabolic Activation: RAT, LIVER, S-9, AROCLOR 1254, Method: FLUCTUATION TEST): active; positive; mutagenic call [4]: inactive; negative; mutagenic call (Test System: AMES SALMONELLA TYPHIMURIUM, Strain/Indicator: TA100, Metabolic Activation: RAT, LIVER, S-9, PHENOBARBITAL AND 5,6-BENZOFLAVONE, Method: PREINCUBATION): inactive; negative; mutagenic call (Test System: AMES SALMONELLA TYPHIMURIUM, Strain/Indicator: TA1535, Metabolic Activation: HAMSTER LIVER S-9 (10%), AROCLOR 1254, Method: PREINCUBATION): inactive; negative; mutagenic call [12]: inactive; negative; mutagenic call [5]: inactive; negative; mutagenic call (Test System: AMES SALMONELLA TYPHIMURIUM, Strain/Indicator: TA1535, Metabolic Activation: RAT LIVER S-9 (10%), AROCLOR 1254, Method: PREINCUBATION): inactive; negative; mutagenic call [6]: inactive; negative; mutagenic call (Test System: AMES SALMONELLA TYPHIMURIUM, Strain/Indicator: TA1537, Metabolic Activation: HAMSTER LIVER S-9 (10%), AROCLOR 1254, Method: PREINCUBATION): inactive; negative; mutagenic call [13]: inactive; negative; mutagenic call [7]: inactive; negative; mutagenic call (Test System: AMES SALMONELLA TYPHIMURIUM, Strain/Indicator: TA1537, Metabolic Activation: RAT LIVER S-9 (10%), AROCLOR 1254, Method: PREINCUBATION): inactive; negative; mutagenic call [8]: inactive; negative; mutagenic call [9]: inactive; negative; mutagenic call [10]: inactive; negative; mutagenic call (Test System: MOUSE LYMPHOMA, Strain/Indicator: L5178Y (TK+/TK- -3.7.2C), Metabolic Activation: NONE): active; positive
